Assay results published in patent publication US12577206B2 (BRISTOL-MYERS SQUIBB COMPANY, priority 2020, dated 2026).

Assays:
human FPR2 = molecular target: T1, human FPR2 (Homo sapiens, UniProt P25090); assay: FPR2 cyclic adenosine monophosphate (cAMP) assay; type: cell-based; settings: CHO cells overexpressing human FPR2; forskolin 5 μM; inhibition of cAMP production; HTRF; read-out: hFPR2 cAMP2 EC50
T1 sequence (P25090 1-351): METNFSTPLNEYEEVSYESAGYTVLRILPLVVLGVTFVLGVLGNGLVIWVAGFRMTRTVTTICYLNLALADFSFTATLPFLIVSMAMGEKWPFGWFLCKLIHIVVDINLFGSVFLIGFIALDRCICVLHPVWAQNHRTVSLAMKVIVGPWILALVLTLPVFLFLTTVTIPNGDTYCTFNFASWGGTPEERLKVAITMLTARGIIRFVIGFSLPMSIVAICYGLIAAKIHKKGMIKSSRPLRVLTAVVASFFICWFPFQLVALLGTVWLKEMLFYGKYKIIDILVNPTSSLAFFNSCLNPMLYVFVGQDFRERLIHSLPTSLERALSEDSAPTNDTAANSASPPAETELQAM
Summary of the method: (§1)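 Gi-coupled activity is read as suppression of forskolin-stimulated cAMP (10 μM final for FPR1, 5 μM final for FPR2; IBMX 200 μM final) in recombinant CHO cells, 30 min incubation at rt, HTRF detection.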

human FPR1 = molecular target: T2, human FPR1 (Homo sapiens, UniProt P21462); assay: FPR1 cyclic adenosine monophosphate (cAMP) assay; type: cell-based; settings: CHO cells overexpressing human FPR1; forskolin 10 μM; inhibition of cAMP production; HTRF; read-out: hFPR1 cAMP2 EC50
T2 sequence (P21462 1-350): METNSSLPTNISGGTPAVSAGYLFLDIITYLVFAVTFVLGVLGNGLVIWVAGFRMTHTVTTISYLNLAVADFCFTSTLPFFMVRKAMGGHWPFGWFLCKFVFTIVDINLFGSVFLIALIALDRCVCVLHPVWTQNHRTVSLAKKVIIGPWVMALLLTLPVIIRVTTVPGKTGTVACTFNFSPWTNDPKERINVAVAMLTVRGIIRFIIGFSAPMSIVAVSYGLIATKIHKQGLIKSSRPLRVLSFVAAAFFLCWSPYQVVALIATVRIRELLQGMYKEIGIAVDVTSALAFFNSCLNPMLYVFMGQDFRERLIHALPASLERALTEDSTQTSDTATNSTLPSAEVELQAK
Summary of the method: as §1

Structure (SMILES)	EC50 (human FPR2)	EC50 (human FPR1)
COc1cc(F)c(-c2c(NC(=O)c3ccc(OC(F)F)cc3)c(=O)n(-c3nc(OCC(C)(C)O)ccc3Cl)n2C)c(F)c1 [Example 298, N-{2-[3-chloro-6-(2-hydroxy-2-methylpropoxy)pyridin-2-yl]-5-(2,6-difluoro-4-methoxyphenyl)-1-methyl-3-oxo-2,3-dihydro-1H-pyrazol-4-yl}-4-(difluoromethoxy)benzamide]	14 nM	440 nM
COc1cc(F)c(-c2c(NC(=O)c3ccc(OC(F)F)cc3)c(=O)n(-c3nc(N4CC5(CC(O)C5)C4)ccc3Cl)n2C)c(F)c1 [Example 299, N-[2-(3-chloro-6-{6-hydroxy-2-azaspiro[3.3]heptan-2-yl}pyridin-2-yl)-5-(2,6-difluoro-4-methoxyphenyl)-1-methyl-3-oxo-2,3-dihydro-1H-pyrazol-4-yl]-4-(difluoromethoxy)benzamide]	8 nM	> 5000 nM
COc1cc(F)c(-c2c(NC(=O)c3ccc(OC(F)F)cc3)c(=O)n(-c3nc(N4CC(O)C4)ccc3Cl)n2C)c(F)c1 [Example 300, N-{2-[3-chloro-6-(3-hydroxyazetidin-1-yl)pyridin-2-yl]-5-(2,6-difluoro-4-methoxyphenyl)-1-methyl-3-oxo-2,3-dihydro-1H-pyrazol-4-yl}-4-(difluoromethoxy)benzamide]	7 nM	> 5000 nM
Cn1c(-c2ccc(C(F)(F)F)cc2)c(NC(=O)c2ccc(OC(F)F)cc2)c(=O)n1-c1ncccc1C(F)(F)F [Example 301, 4-(difluoromethoxy)-N-{1-methyl-3-oxo-5-[4-(trifluoromethyl)phenyl]-2-[3-(trifluoromethyl)pyridin-2-yl]-2,3-dihydro-1H-pyrazol-4-yl}benzamide]	6 nM	140 nM
COc1cc(F)c(-c2c(NC(=O)c3ccc(OC(F)F)cc3)c(=O)n(-c3nc(N4CCCC4C(F)(F)F)ccc3C(F)(F)F)n2C)c(F)c1 (centres unmarked) [Example 302, N-[5-(2,6-difluoro-4-methoxyphenyl)-1-methyl-3-oxo-2-[3-(trifluoromethyl)-6-[2-(trifluoromethyl)pyrrolidin-1-yl]pyridin-2-yl]-2,3-dihydro-1H-pyrazol-4-yl]-4-(difluoromethoxy)benzamide]	1 nM	2200 nM
COc1cc(F)c(-c2c(NC(=O)c3ccc(OC(F)F)cc3)c(=O)n(-c3nc(N4CCC(C(N)=O)C4)ccc3C(F)(F)F)n2C)c(F)c1 (centres unmarked) [Example 303, 1-{6-[3-(2,6-difluoro-4-methoxyphenyl)-4-[4-(difluoromethoxy)benzamido]-2-methyl-5-oxo-2,5-dihydro-1H-pyrazol-1-yl]-5-(trifluoromethyl)pyridin-2-yl}pyrrolidine-3-carboxamide]	1 nM	> 10000 nM
Cn1c(-c2ccc(OC(F)(F)F)cc2)c(NC(=O)c2ccc(OC(F)F)cc2)c(=O)n1-c1ncccc1C(F)(F)F [Example 304, 4-(difluoromethoxy)-N-{1-methyl-3-oxo-5-[4-(trifluoromethoxy)phenyl]-2-[3-(trifluoromethyl)pyridin-2-yl]-2,3-dihydro-1H-pyrazol-4-yl}benzamide]	21 nM	110 nM
COc1cc(F)c(-c2c(NC(=O)c3ccc(OC(F)F)cc3)c(=O)n(-c3nc(N4CCC(C(N)=O)C4)ccc3C(F)(F)F)n2C)c(F)c1 (centres unmarked) [Example 305, 1-{6-[3-(2,6-difluoro-4-methoxyphenyl)-4-[4-(difluoromethoxy)benzamido]-2-methyl-5-oxo-2,5-dihydro-1H-pyrazol-1-yl]-5-(trifluoromethyl)pyridin-2-yl}pyrrolidine-3-carboxamide]	2 nM	3900 nM
COc1cc(F)c(-c2c(NC(=O)c3ccc(OC(F)F)cc3)c(=O)n(-c3nc(N4CCN5CCC[C@@H]5C4)ccc3C(F)(F)F)n2C)c(F)c1 [Example 306, N-(2-{6-[(8aR)-octahydropyrrolo[1,2-a]piperazin-2-yl]-3-(trifluoromethyl)pyridin-2-yl}-5-(2,6-difluoro-4-methoxyphenyl)-1-methyl-3-oxo-2,3-dihydro-1H-pyrazol-4-yl)-4-(difluoromethoxy)benzamide]	1 nM	2300 nM
COc1cc(F)c(-c2c(NC(=O)c3ccc(OC(F)F)cc3)c(=O)n(-c3nc(N4CC(C)(O)C4)ccc3Cl)n2C)c(F)c1 [Example 307, N-{2-[3-chloro-6-(3-hydroxy-3-methylazetidin-1-yl)pyridin-2-yl]-5-(2,6-difluoro-4-methoxyphenyl)-1-methyl-3-oxo-2,3-dihydro-1H-pyrazol-4-yl}-4-(difluoromethoxy)benzamide]	5 nM	> 10000 nM
COc1cc(F)c(-c2c(NC(=O)c3ccc(OC(F)F)cc3)c(=O)n(-c3nc(N4CC5(CC(O)C5)C4)ccc3C(F)(F)F)n2C)c(F)c1 [Example 308, N-[5-(2,6-difluoro-4-methoxyphenyl)-2-(6-{6-hydroxy-2-azaspiro[3.3]heptan-2-yl}-3-(trifluoromethyl)pyridin-2-yl)-1-methyl-3-oxo-2,3-dihydro-1H-pyrazol-4-yl]-4-(difluoromethoxy)benzamide]	3 nM	> 10000 nM
CCc1ccc(OCC(C)(C)O)nc1-n1c(=O)c(NC(=O)c2ccc(OC(F)F)cc2)c(-c2c(F)cc(OC)cc2F)n1C [Example 309, N-[5-(2,6-difluoro-4-methoxyphenyl)-2-[3-ethyl-6-(2-hydroxy-2-methylpropoxy)pyridin-2-yl]-1-methyl-3-oxo-2,3-dihydro-1H-pyrazol-4-yl]-4-(difluoromethoxy)benzamide]	10 nM	2200 nM
CCc1ccc(N2CC(C)(O)C2)nc1-n1c(=O)c(NC(=O)c2ccc(OC(F)F)cc2)c(-c2c(F)cc(OC)cc2F)n1C [Example 310, N-[5-(2,6-difluoro-4-methoxyphenyl)-2-[3-ethyl-6-(3-hydroxy-3-methylazetidin-1-yl)pyridin-2-yl]-1-methyl-3-oxo-2,3-dihydro-1H-pyrazol-4-yl]-4-(difluoromethoxy)benzamide]	7 nM	> 10000 nM
COc1cc(F)c(-c2c(NC(=O)c3ccc(OC(F)F)cc3)c(=O)n(-c3nc(N4CC(C)(O)C4)ccc3C#N)n2C)c(F)c1 [Example 311, N-{2-[3-cyano-6-(3-hydroxy-3-methylazetidin-1-yl)pyridin-2-yl]-5-(2,6-difluoro-4-methoxyphenyl)-1-methyl-3-oxo-2,3-dihydro-1H-pyrazol-4-yl}-4-(difluoromethoxy)benzamide]	5 nM	> 10000 nM
COc1cc(F)c(-c2c(NC(=O)c3ccc(OC(F)F)cc3)c(=O)n(-c3cccc(N4CC(C)(O)C4)n3)n2C)c(F)c1 [Example 312, N-[5-(2,6-difluoro-4-methoxyphenyl)-2-[6-(3-hydroxy-3-methylazetidin-1-yl)pyridin-2-yl]-1-methyl-3-oxo-2,3-dihydro-1H-pyrazol-4-yl]-4-(difluoromethoxy)benzamide]	12 nM	2000 nM
COc1ccc(-c2c(NC(=O)c3ccc(OC(F)F)cc3)c(=O)n(-c3nc(N4CCC(C)(O)CC4)ccc3C(F)(F)F)n2C)c(F)c1 [Example 313, 4-(difluoromethoxy)-N-[5-(2-fluoro-4-methoxyphenyl)-2-[6-(4-hydroxy-4-methylpiperidin-1-yl)-3-(trifluoromethyl)pyridin-2-yl]-1-methyl-3-oxo-2,3-dihydro-1H-pyrazol-4-yl]benzamide]	1 nM	210 nM
COc1cc(F)c(-c2c(NC(=O)c3ccc(OC(F)F)cc3)c(=O)n(-c3nc(N4CCC(C)(O)CC4)ccc3C(F)(F)F)n2C)c(F)c1 [Example 314, N-[5-(2,6-difluoro-4-methoxyphenyl)-2-[6-(4-hydroxy-4-methylpiperidin-1-yl)-3-(trifluoromethyl)pyridin-2-yl]-1-methyl-3-oxo-2,3-dihydro-1H-pyrazol-4-yl]-4-(difluoromethoxy)benzamide]	1 nM	2700 nM
COc1cccc(-n2c(=O)c(NC(=O)c3ccc(OC(F)F)cc3)c(-c3ccc(OC(F)F)cc3)n2C)n1 [Example 315, 4-(difluoromethoxy)-N-{5-[4-(difluoromethoxy)phenyl]-2-(6-methoxypyridin-2-yl)-1-methyl-3-oxo-2,3-dihydro-1H-pyrazol-4-yl}benzamide]	30 nM	290 nM
COc1cc(F)c(-c2c(NC(=O)c3ccc(OC(F)F)cc3)c(=O)n(-c3nc(C4CCN(S(C)(=O)=O)CC4)ccc3Cl)n2C)c(F)c1 [Example 316, N-{2-[3-chloro-6-(1-methanesulfonylpiperidin-4-yl)pyridin-2-yl]-5-(2,6-difluoro-4-methoxyphenyl)-1-methyl-3-oxo-2,3-dihydro-1H-pyrazol-4-yl}-4-(difluoromethoxy)benzamide]	2 nM	> 5000 nM
